{"source": "patent US20250340616A1", "about": "“NOVEL PEPTIDE MIMICS AND THEIR USE” (STIFTELSEN VECTIS, priority 2021, published 2025)", "test_system": "TCR specific for the citrullinated fibrinogen peptide", "experiment": "activation of 58−/− T cell line expressing cit-fib specific TCR by peptide-loaded HLA-DRB1*04:01 monomers (NFAT-GFP reporter, PD1 expression)", "type": "cell-based, human", "conditions": "peptide presented on HLA-DRB1*04:01, 48 h; for TCR-dependent NFAT mediated activation of T cells: GFP reporter, FIG. 3; for TCR-dependent PD1 expression: anti-mouse PD-1 staining, FIG. 4", "experimental": "58−/− cell line expressing cit-fib specific TCRs in ametrine expressing vector, along with co-expression of human CD4 and GFP as a reporter for NFAT expression.\nHLA-DRB1*04:01 monomeric protein (500 μg/mL) was incubated for 72 h at 37° C. with different versions of fib69-81 peptide (test) and VimX71 peptide (control) in sodium phosphate buffer (1×) containing n-octyl β-D-Glucopyranoside (Sigma-Aldrich, USA) and Pefabloc SC (Sigma-Aldrich, USA), and then stored at 4° C. until used. Loaded HLA monomers were subsequently coated (0.03-2 μg/well) onto 48-well plates in 100 μl PBS for 4 h at 37° C. The HLA/peptide solution was subsequently flicked of the plate and specific T cells (5×104) and anti-CD28 (1 μg/well) were added to the monomer-coated wells and incubated for 48 h at 37° C. before collecting cells.\nAs positive controls, anti-mouse anti-CD3 (BioLegend #100314), anti-CD28 (BioLegend #101112) were used.\nPD1 expression on 58−/− cells was assessed using anti-mouse PD-1 PE-Cy7 antibody, while NFAT activation was studied using assessment of GFP expression following cell stimulation. Human CD4+ametrine+ viable singlets were used as population to look for expression of NFAT and PD1.", "note": "Where no end group is shown, it is not given here. [ ]: non-standard residue; d: D form. Cit = NC(=O)NCCC[C@H](N)C(=O)O", "data": [{"sequence": "GGFRAQPAKAAAT [FibF71Q74, fibrinogen 69-81 mimic, glutamine in position 74 and phenylalanine in position 71]", "values": [{"measurement": "TCR-dependent NFAT mediated activation of T cells", "result": "equally capable of triggering T cell activation as the original citrullinated peptide"}, {"measurement": "TCR-dependent PD1 expression", "result": "equally capable of triggering T cell activation as the original citrullinated peptide"}]}, {"sequence": "GGFRAXPAKAAAT (GGFRA[Cit]PAKAAAT; ends and bridges not checked) [FibF71X74]", "values": [{"measurement": "TCR-dependent NFAT mediated activation of T cells", "result": "equally capable of triggering T cell activation as the original citrullinated peptide"}, {"measurement": "TCR-dependent PD1 expression", "result": "equally capable of triggering T cell activation as the original citrullinated peptide"}]}, {"sequence": "GGYRAQPAKAAAT [FibQ74, fibrinogen 69-81 mimic, a glutamine in position 74]", "values": [{"measurement": "TCR-dependent NFAT mediated activation of T cells", "result": "equally capable of triggering T cell activation as the original citrullinated peptide"}, {"measurement": "TCR-dependent PD1 expression", "result": "equally capable of triggering T cell activation as the original citrullinated peptide"}]}]}
